Experimental data taken from article PMC10214526, “Semisynthetic LC3 Probes for Autophagy Pathways Reveal a Noncanonical LC3 Interacting Region Motif Crucial for the Enzymatic Activity of Human ATG3” (ACS Central Science, 2023).
Where no end group is shown, it is not given here.

How the values were obtained:
GABARAP = target: T1, GABARAP (Homo sapiens, UniProt O95166); assay: Fluorescence polarization binding of fluorescein-modified LIR^ATG3 peptides to GABARAP; details: response letter; truncated LIR peptide (103–111)
T1 construct: His6-SUMO (pOPINS) (N, cleaved yes); made in house; host or cells: E. coli Rosetta-CodonPlus (DE3)-RIL
T1 sequence (O95166 whole entry, the tested form may be a part): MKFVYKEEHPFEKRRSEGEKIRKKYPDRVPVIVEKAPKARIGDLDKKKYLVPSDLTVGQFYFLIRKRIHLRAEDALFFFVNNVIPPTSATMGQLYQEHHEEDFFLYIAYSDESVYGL
From the text: (§1) Figure 2 Characterization of LIR^ATG3. a. Reaction scheme outlining competition assay used for b, c, and d. b. Coomassie Blue-stained SDS-PAGE analysis for reaction of 2 with ATG3 C1 in the presence of varying concentrations of linear LIR^ATG3 peptide 5 as outlined in a. c. Coomassie Blue-stained SDS-PAGE analysis for reaction of 2 with ATG3 C1 in the presence of varying concentrations of cyclized LIR^ATG3 peptide 6 as outlined in a. d. Quantification of competition assays shown in b and c. The amount of GABARAP–ATG3 C1 complex was quantified by gel-densitometry and normalized to the reaction without peptide for each gel. […] Data are presented as average values ± s.d. e. Fluorescence polarization binding-data of fluorescein-modified LIR^ATG3 peptide binding to GABARAP. Either linear, cyclized, or truncated (103–111) LIR^ATG3 peptide was used. […] Fluorescence polarization data of fluorescein-modified LIR^ATG3 peptide binding to LC3A. […]
(§2) 3.13.Fluorescence polarization measurement
(§3) Fluorescent peptides were dissolved in DMSO and PBS. The concentration was determined by UV - absorption and extinction coefficient at 280 nm. […] Protein concentration was determined using UV-absorption and extinction coefficient at 280 nm. […]
(§4) 0.047 μM. […] Fluorescence polarization and intensity was measured on a Victor Nivo Plate Reader (Perkin Elmer). […]

LC3A = target: T2, LC3A (Homo sapiens, UniProt Q9H492); assay: Fluorescence polarization binding of fluorescein-modified LIR^ATG3 peptides to LC3A
T2 construct: His6-SUMO (pOPINS) (N, cleaved yes); made in house; host or cells: E. coli Rosetta-CodonPlus (DE3)-RIL
From the text: as §1, §2, §3, §4

ATG3 [1] = assay: Reaction (cross-linking) of Ubl activity-based probes with recombinant ATG3 and variants; type: biochemical, human; details: for Reaction with ATG3 C0: ATG3 C0 (no cysteines) 15 μM; for Reaction with ATG3 C1: ATG3 C1 (only active-site C264) 15 μM; for Reaction with ATG3 ΔLIR: ATG3 C1 ΔLIR (Δ95–111) 15 μM
Method: Figure 1 Modification of ATG3 with GABARAP ABPs depends on LIR^ATG3. a. Characterization of GABARAP activity-based probes, 1 and 2, obtained by hydrazide-acylation. Deconvoluted mass-spectrum (ESI) of GABARAP(ΔG116)–NHNH α-chloroacetyl 1. Expected mass 13707 Da. Deconvoluted mass-spectrum (ESI) of GABARAP(ΔG116)–NHNH methyl-fumarate 2. Expected mass 13743 Da. b. […] The reaction was allowed to proceed for 1 h and was analyzed by SDS-PAGE and Coomassie Blue staining. c. ColabFold-predicted structure of the protein-complex of ATG3 and GABARAP. Side-chain atoms are shown for the predicted LIR motif in ATG3 (90–112). d. Reaction of 2 (15 μM) with ATG3 variants C1, C0, and ΔLIR (15 μM). ATG3 C1 contains only active-site cysteine C264. ATG3 C0 contains no cysteines. ATG3 ΔLIR lacks amino acids 95–111. Reaction was allowed to proceed for 1 h and was analyzed by SDS-PAGE and Coomassie Blue staining. Full-gel images for b and d are available in the Supplementary Information.
We were intrigued by the cross-linking efficiency of 2 with ATG3 and sought to investigate the origin of this efficiency by generating a C1 variant of ATG3 that only contains the catalytic cysteine 264 and a corresponding C0 variant containing no cysteines. […] In general, the affinity of E2s for their cognate Ubls are quite low, as the thioester transfer from the E1 to the E2 enzyme is facilitated by additional interactions from the UFD domain of the E1 enzyme.[23] […]
Upon completion the solution was dialyzed against 25 mM
HEPES, 200 mM NaCl pH 7.2 at 4 °C. Cleaved intein was removed using gravity Ni-NTA purification.
The flow-through was collected and combined with resin washes. The combined fractions were dialyzed and further purified using ion exchange.
3.3. Generation of GABARAP and LC3A hydrazides from SUMO-GABARAP/LC3A-Mxe GyrA-
SUMO-GABARAP/LC3A-Mxe GyrA-His6 fusion after Ni-NTA purification was dialyzed against intein cleavage buffer (25 mM HEPES, 500 mM NaCl, 1 mM EDTA pH 7.2 at 4 °C). After dialysis hydrazine monohydrate (75 mM) and MESNa (10 mM) was added and the pH adjusted to 7.8. The solution was allowed to stand at room temperature and monitored using LC-MS analysis. Upon completion the solution was dialyzed against 25 mM HEPES, 500 mM NaCl pH 7.2 at 4 °C. SENP1 (1 wt%) was added to cleave the SUMO-tag. The cleaved intein was removed using gravity Ni-NTA purification. […]
dialyzed and further purified using cation exchange using a buffer 25 mM Tris pH 8.0 and a gradient of […] in the same buffer over 25 column volumes. The product fractions were pooled, concentrated, and stored at –80 °C until further use.
3.4. Synthesis of symmetrical anhydrides
The carboxylic acid was dissolved in CH2Cl2 (300 mM) and dicyclohexylcarbodiimide (0.5 eqiv) was added in one portion. The reaction was stirred under N2 for 18 h. The suspension was filtered and concentrated to ~10% of the initial volume. The solution was placed at 4 °C for 1 h and filtered again.
The filtrate was concentrated to obtain the symmetrical anhydride which was used without further purification. Anhydrides can be stored at –20 °C for weeks.
3.5. Reaction of modified Ubl probes with E2s
Ubl probes (15 μM) were mixed with E2s (15 μM) in PBS. The mixture was incubated at 37 °C in a water bath for 0.5-3 h. The reaction was quenched by addition of 2x Laemmli buffer and boiled at 95 °C for 5 min. Samples were resolved by SDS-PAGE (8-16%, Bio-Rad) and visualized by […]
Coomassie staining. […]

ATG3 [2] = assay: as above; type: biochemical, human; details: probe 15 μM; ATG3 wt, C264A and ΔLIR 5 μM; SDS-PAGE (Figure S9)

Substance: truncated LIR^ATG3: fluorescein-modified truncated (103–111) LIR^ATG3 peptide, amino acids G103-Y111 including the core LIR motif (GDGGWVDTY; also: fluorescein, position not given here)
- fold weaker affinity of truncated peptide, GABARAP (GABARAP): > 8 fold
- fold weaker binding of truncated peptide than linear peptide (LC3A; GABARAP or LC3A not stated, truncated (103–111) vs linear): 6 fold
- fold weaker affinity of truncated peptide, LC3A (LC3A; response letter, truncated LIR peptide lacking amino acids 104-95): > 8 fold

Substance: Ub(ΔGG)–NHNH methyl fumarate [Ub(ΔGG) methyl fumarate probe, reference compound]
- Reaction with ATG3 wt (ATG3 [1]; probe 15 μM, ATG3 15 μM, 1 h, SDS-PAGE, Coomassie Blue): did not react

Substance: LC3A(ΔG120)–NHNH methyl fumarate [compound 4]
- Reaction with ATG3 C0 (ATG3 [1]; probe 15 μM, SDS-PAGE): no reaction
- Reaction with ATG3 C1 (ATG3 [1]; probe 15 μM, SDS-PAGE): efficient reaction
- Reaction with ATG3 ΔLIR (ATG3 [1]; probe 15 μM, SDS-PAGE): no reaction

Substance: GABARAP(ΔG116)–NHNH α-chloroacetyl [compound 1]
- LIR dependence of cross-linking with ATG3 (ATG3 [1]; ATG3 with or without LIR): strictly dependent on LIR^ATG3
- Cross-linking with ATG3 C1 vs C0 (ATG3 [1]; probe 1 15 μM, ATG3 C1 or C0 15 μM, 1 h (Figure S2)): Cross-linking was only observed for ATG3 C1
- LIR dependence of ATG3 wild-type modification (ATG3 [2]): dependent on LIRATG3

Substance: LC3A(ΔG120)–NHNH α-chloroacetyl [compound 3]
- Reaction with ATG3 C0 (ATG3 [1]; probe 15 μM, SDS-PAGE): no reaction
- Reaction with ATG3 C1 (ATG3 [1]; probe 15 μM, SDS-PAGE): efficient reaction
- Reaction with ATG3 ΔLIR (ATG3 [1]; probe 15 μM, SDS-PAGE): no reaction
